Test results as given in article PMC7694773, “Synthesis, 3D-QSAR, and Molecular Modeling Studies of Triazole Bearing Compounds as a Promising Scaffold for Cyclooxygenase-2 Inhibition” (Pharmaceuticals, 2020).
Several values for one entry are separate records, joined by “and”; a condition that tells them apart may be missing. Identical values can stand only once. Like-named read-outs stand apart in the source and are kept apart here.

Assays:
egg albumin = molecular target: T1, egg albumin (Gallus gallus, UniProt P01012); assay: In situ anti-inflammatory assay: inhibition of protein (albumin) denaturation
T1 sequence (P01012 1-386): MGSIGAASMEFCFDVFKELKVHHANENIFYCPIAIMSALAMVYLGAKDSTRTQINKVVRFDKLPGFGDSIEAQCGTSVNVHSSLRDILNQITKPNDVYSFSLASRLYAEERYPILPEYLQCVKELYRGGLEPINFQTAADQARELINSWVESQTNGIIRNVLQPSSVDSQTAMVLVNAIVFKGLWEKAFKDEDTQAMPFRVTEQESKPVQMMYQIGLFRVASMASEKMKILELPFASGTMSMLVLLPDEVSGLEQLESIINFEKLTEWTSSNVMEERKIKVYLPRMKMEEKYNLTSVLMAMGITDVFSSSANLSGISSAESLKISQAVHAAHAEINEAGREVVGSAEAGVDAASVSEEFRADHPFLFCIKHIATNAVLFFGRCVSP
Experimental: Protein denaturation is used for the evaluation of anti-inflammatory activity. In this methodology, generally, tertiary and secondary protein structures will typically be destroyed by the application of an external molecule or stress. The biological function of most bio-proteins is lost if it is denatured. It is well reported that a basis of inflammation is denaturation of protein.
The reaction mixture is molecules with serial dilutions (1000, 100, 10, 1, 0.1 µM), phosphate buffered saline (PBS; pH 6.4), and egg albumin. The control used was double distilled water (equal volume). […] After attaining ambient temperature, the absorbance of samples was measured spectrophotometrically at 660 nm using vehicle as blank. […] The experiment was performed in triplicate. Percent inhibition of protein denaturation was calculated using the Equation Inhibition (%) of protein denaturation inhibition (%) = (AC − AS)/AC × 100 where AC: absorbance of control, AS: absorbance of sample.

bovine COX-1 = molecular target: T2, bovine COX-1 (Ovis aries, UniProt P05979); assay: In vitro COX-1 inhibition, enzyme immunoassay kit (Cayman item no. 560131); format: biochemical; settings: mean of two determinations
T2 construct: purchased Cayman Chemical 560131
T2 sequence (P05979 25-600): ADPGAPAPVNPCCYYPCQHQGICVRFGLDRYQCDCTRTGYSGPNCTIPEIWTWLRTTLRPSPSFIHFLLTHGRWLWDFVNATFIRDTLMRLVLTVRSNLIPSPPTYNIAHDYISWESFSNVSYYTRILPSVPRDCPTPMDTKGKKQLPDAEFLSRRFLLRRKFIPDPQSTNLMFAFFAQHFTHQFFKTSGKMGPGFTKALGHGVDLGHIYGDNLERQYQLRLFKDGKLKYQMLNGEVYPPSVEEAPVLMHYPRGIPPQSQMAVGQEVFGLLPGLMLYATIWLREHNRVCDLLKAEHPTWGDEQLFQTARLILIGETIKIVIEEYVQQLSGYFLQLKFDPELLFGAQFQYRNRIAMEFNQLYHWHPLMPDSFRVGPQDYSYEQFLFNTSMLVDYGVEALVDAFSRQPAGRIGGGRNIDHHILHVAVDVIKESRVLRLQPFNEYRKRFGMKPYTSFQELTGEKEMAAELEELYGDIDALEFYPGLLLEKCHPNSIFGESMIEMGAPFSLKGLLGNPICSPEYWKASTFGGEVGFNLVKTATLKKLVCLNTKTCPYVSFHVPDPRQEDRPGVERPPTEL
Excerpt: (§1) The in vitro COX-1/COX-2 isozyme inhibition studies measure the ability of tested compounds to inhibit bovine COX-1 and human recombinant COX-2 using an enzyme immunoassay (COX inhibitor screening assay kit, item no. 560131) according to the manufacturer’s instructions. […].

human recombinant COX-2 = molecular target: T3, human recombinant COX-2 (Homo sapiens, UniProt P35354); assay: In vitro COX-2 inhibition, enzyme immunoassay kit (Cayman item no. 560131); format: biochemical
T3 construct: purchased Cayman Chemical 560131
T3 sequence (P35354 18-604): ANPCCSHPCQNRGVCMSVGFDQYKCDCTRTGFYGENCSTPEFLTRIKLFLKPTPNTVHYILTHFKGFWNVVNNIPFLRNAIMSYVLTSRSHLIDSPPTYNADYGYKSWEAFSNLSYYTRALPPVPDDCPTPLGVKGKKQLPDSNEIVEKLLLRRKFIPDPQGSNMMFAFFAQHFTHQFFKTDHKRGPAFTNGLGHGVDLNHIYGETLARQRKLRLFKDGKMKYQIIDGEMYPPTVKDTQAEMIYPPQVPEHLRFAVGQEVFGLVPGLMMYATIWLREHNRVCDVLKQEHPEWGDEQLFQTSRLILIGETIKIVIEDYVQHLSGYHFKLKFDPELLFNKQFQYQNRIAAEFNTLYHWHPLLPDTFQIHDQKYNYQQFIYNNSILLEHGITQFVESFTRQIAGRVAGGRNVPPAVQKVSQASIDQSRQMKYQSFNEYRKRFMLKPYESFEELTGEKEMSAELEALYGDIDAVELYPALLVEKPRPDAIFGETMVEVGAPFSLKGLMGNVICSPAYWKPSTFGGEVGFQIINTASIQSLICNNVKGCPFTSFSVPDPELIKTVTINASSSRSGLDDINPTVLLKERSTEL
Excerpt: as §1

LogIC50 protein denaturation (egg albumin; GraphPad prism curve fit, IC50 in µM (Figure 3)): 0.9126 | IC50 (egg albumin; non-linear regression, sigmoidal dose-inhibition fit, GraphPad prism): 8.17 µM and 8.18 µM | inhibition at 1000 µM (egg albumin; protein denaturation, conc. 1000 µM, three replicates, read-out: % of inhibition ± SEM at conc. 1000): 51% | % of inhibition ± SEM at conc. 0.1 (egg albumin; protein denaturation, conc. 0.1 (µM), three replicates): 8.97±0.97% | % of inhibition ± SEM at conc. 1 (egg albumin; protein denaturation, conc. 1 (µM), three replicates): 18.95±1.04% | % of inhibition ± SEM at conc. 10 (egg albumin; protein denaturation, conc. 10 (µM), three replicates): 31.86±0.96% | % of inhibition ± SEM at conc. 100 (egg albumin; protein denaturation, conc. 100 (µM), three replicates): 49.08±1.05% | IC50 (bovine COX-1): 7.97 µM | COX-2 S.I. (selectivity index, COX-1 IC50/COX-2 IC50) (human recombinant COX-2): 53.1 | IC50 (human recombinant COX-2; human recombinant COX-2, mean of two determinations, read-out: IC50 COX-2): 0.15 µM | IC50 (human recombinant COX-2; pIC50 = −Log (IC50) of the COX-2 IC50, read-out: Activity (experimental pIC50, COX-2) (converted)): 0.15 µM | melting point: 177 to 178 °C
Compound: COc1ccc(C=Nn2c(S)nnc2COc2ccc3ccccc3c2)cc1 [Compound 9d, 4-((4-methoxybenzylidene)amino)-5-((naphthalen-2-yloxy)methyl)-4H-1,2,4-triazole-3-thiol]
